Laboratory results: patent US8338422B2, “Indolin-2-ones and aza-indolin-2-ones” (Janssen Pharmaceutica NV, priority 2007, dated 2012)
Where “and” joins values, the source holds several entries; their conditions need not be identical. Equal entries are not always repeated.

How the values were obtained:
Type in all cases: biochemical
[1] = target: PLK4 (h) (Homo sapiens, UniProt O00444); experiment: PLK-4 human kinase assay (SPA); conditions: for IC50: read-out: PLK4 pIC50 (converted)
Protocol: (§1) The in vitro inhibition of a panel of kinases was assessed using either the scintillation proximity assay (SPA) as described by Cook, N. D. et al., Advances in Experimental Medicine and Biology (1991), 36; p. 525-528; or the Fluorescence Resonance Energy Transfer (FRET) technology as described by Rodems, S. M. et al., Assay Drug Develop. Technol. (2002), 1; p. 9-19.
(§2) In the SPA technology the activity of the kinase of interest is measured using an appropriate biotinylated substrate that is incubated with the aforementioned kinase protein in the presence of (^33P) radiolabeled ATP. (^33P) Phosporylation of the substrate is subsequently measured through binding of the phosphorylated substrate to streptavidine coated beads that are based on the scintillant poly(vinyl toluene) (PVT-Beads). The scintillation intensity is detected by imaging on Leadseeker.
(§3) All kinases are pre-diluted to a 10× working concentration prior to addition into the assay. The composition of the dilution buffer for each kinase is detailed below.
In a final reaction volume of 30 μl PLK4 (h) (19 μg/ml) is incubated with 50 mM Hepes pH 8.0, 10 mM MgCl2, 50 mM NaCl, 1 mM NaF, 1 mM DTT, 10 μM of peptide Biotin-RPRGQRDSSYYWE-OH, 1 μM ATP and 2 nM [γ-^33P-ATP] (6.0 μCi/ml). After incubation of 60 minutes at room temperature, the reaction is stopped by addition of 40 μl, of stop solution containing 8.7 mM EDTA, BSA 0.17%, 0.17% Triton X-100, 1.7 mg/ml SPA beads (GE-healthcare). The plate is centriguged and read for Scintillation imaging on Leadseeker.

[2] = target: AuroraB (h) (Homo sapiens, UniProt Q96GD4); experiment: Aurora-B human kinase assay (SPA); conditions: for IC50: read-out: AuroraB pIC50 (converted)
AuroraB (h), sequence (Q96GD4 whole entry): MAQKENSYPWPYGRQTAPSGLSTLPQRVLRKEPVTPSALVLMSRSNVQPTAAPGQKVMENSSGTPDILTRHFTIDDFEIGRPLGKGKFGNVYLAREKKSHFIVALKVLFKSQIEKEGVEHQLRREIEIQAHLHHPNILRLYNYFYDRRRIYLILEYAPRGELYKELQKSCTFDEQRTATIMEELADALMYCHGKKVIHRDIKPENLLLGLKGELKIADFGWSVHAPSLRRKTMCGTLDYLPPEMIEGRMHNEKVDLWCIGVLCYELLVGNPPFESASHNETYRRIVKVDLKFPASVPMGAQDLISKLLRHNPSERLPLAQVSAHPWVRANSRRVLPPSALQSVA
Protocol: as §1, §2, §3
In a final reaction volume of 30 μl, AuroraB (h) (0.5 μg/ml) is incubated with 60 mM Hepes pH 7.5, 3 mM MgCl2, 3 mM MnCl2, 3 μM Na3VO4, 0.05 mg/ml PEG, 2 mM DTT, 3 μM Biotin-[…]-OH, 0.5 μM ATP and 2.2 nM [γ-^33P-ATP] (6.8 μCi/ml). After incubation of 60 minutes at room temperature, the reaction is stopped by addition of 40 μL of stop solution containing 8.7 mM EDTA, BSA 0.17%, 0.17% Triton X-100, 5 mg/ml SPA beads (GE-healthcare). The plate is centriguged and read for Scintillation imaging on Leadseeker.

[3] = target: GSK3β (h) (Homo sapiens, UniProt P49841); experiment: GSK-3β human kinase assay (SPA); conditions: for IC50: read-out: GSK3B pIC50 (converted)
GSK3β (h), sequence (P49841 whole entry): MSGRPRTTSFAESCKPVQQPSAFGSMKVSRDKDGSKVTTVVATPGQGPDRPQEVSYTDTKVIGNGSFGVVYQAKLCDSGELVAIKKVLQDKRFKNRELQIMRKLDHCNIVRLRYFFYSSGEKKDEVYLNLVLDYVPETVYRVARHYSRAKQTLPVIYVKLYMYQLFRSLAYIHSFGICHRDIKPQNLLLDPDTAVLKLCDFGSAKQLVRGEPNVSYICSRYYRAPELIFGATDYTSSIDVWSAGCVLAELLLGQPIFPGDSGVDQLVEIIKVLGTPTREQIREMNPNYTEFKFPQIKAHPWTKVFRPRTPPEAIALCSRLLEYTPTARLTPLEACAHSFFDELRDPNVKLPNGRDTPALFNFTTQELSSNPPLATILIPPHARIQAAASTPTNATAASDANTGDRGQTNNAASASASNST
Protocol: as §1, §2, §3
In a final reaction volume of 30 μl, GSK3β (h) (1 μg/ml) is incubated with 25 mM Tris pH 7.4, 10 mM MgCl2, 1 mM DTT, 1 μM peptide Biotin-KRREILSRRPSYR-OH, 1 μM ATP and 2 nM [γ-^33P-ATP] (6.0 μCi/ml). After incubation of 60 minutes at room temperature, the reaction is stopped by addition of […] of stop solution containing 8.7 mM EDTA, BSA 0.17%, 0.17% Triton X-100, 6.25 mg/ml SPA beads (GE-healthcare). The plate is centriguged and read for Scintillation imaging on Leadseeker.

[4] = target: CDK1/CyclinB (h) (Homo sapiens, UniProt P06493); experiment: CDK1/CyclinB human kinase assay (FRET); conditions: for IC50: read-out: CDK1 pIC50 (converted)
CDK1/CyclinB (h), sequence (P06493 whole entry): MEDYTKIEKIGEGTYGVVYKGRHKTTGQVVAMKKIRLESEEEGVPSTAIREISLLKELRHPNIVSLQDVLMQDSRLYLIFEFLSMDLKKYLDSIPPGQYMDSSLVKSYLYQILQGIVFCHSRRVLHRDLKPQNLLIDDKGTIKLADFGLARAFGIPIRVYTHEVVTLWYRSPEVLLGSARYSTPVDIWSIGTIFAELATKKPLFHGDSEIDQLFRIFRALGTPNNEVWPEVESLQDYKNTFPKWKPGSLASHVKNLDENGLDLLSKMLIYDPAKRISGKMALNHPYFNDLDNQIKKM
CDK1/CyclinB (h), sequence (P14635 whole entry partner): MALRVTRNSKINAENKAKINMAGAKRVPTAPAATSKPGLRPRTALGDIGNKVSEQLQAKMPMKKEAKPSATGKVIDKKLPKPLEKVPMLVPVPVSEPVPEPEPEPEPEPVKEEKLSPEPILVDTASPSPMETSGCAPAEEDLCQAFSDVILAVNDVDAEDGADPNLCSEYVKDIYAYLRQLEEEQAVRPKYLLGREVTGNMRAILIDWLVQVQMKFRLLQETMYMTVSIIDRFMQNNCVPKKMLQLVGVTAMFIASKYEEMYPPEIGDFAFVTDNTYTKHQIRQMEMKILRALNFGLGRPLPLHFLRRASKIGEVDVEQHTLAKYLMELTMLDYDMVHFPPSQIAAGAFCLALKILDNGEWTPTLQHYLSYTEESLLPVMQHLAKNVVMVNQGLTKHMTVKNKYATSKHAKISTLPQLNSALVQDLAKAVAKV
Protocol: as §1
In the FRET technology the activity of the kinase of interest is measured using an appropriate substrate that is labeled with two fluorophores (coumarin and fluorescein). Phosphorylation is determined using a developing reagent comprising a protease that recognizes and cleaves nonphosphorylated peptides. Cleavage will disturb the FRET between the fluorescein and coumarin on the peptide. Uncleaved, phosphorylated peptides maintain the FRET signal. A ratiometric readout of the donor emission over the acceptor emission quantitates the reaction process.
as §3
In a final reaction volume of 10 μl, CDK1/CyclinB (h) (0.2 μg/ml) is incubated with 50 mM Hepes pH 7.5, 10 mM MgCl2, 1 mM EGTA, 0.01% Brij-35, 2 μM Z'lyte Ser/Thr peptide 12 and 10 μM ATP (Invitrogen's FRET assay). After incubation of 60 minutes at room temperature, the reaction is stopped by addition of 5 μL development reagent containing protease mix. After 60 minutes room temperature the development reaction is stopped by adding 5 μl stop solution. The plate is then read in fluorescence plate reader with excitation: 390 nm and dual emission: 460 and 538 nm. Emission ratio is determined to the formula=Emission signal intensity at 460 nm/Emission signal intensity at 538 nm.

PLK4 (h), sequence (O00444 whole entry): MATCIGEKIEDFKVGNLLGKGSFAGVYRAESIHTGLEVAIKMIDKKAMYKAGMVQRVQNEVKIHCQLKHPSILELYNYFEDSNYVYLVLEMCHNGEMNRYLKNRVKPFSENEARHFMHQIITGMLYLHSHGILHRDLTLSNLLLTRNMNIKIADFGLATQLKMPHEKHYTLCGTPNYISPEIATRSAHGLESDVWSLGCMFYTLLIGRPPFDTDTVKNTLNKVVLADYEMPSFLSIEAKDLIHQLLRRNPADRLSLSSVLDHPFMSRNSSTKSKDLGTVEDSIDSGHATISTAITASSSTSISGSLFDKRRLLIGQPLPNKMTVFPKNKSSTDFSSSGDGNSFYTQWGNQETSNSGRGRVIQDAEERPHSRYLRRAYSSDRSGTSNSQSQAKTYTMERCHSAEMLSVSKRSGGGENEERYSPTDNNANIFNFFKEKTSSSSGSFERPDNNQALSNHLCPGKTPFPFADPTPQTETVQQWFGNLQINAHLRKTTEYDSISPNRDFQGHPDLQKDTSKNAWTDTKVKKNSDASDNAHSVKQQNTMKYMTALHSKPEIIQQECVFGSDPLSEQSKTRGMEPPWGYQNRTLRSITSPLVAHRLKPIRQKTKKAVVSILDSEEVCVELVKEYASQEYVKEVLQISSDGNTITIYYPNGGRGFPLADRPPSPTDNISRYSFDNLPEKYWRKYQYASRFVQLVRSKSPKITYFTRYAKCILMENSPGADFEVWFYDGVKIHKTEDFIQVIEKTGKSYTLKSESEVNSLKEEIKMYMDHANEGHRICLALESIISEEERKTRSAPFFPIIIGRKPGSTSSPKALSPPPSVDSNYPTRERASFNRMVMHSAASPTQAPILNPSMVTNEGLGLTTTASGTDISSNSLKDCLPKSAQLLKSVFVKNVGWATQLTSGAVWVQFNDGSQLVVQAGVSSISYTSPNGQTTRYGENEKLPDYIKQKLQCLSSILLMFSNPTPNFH

Row | SMILES | IC50 [1] | IC50 [2] | IC50 [3] | PLK4 pIC50 [1] | AuroraB pIC50 [2] | GSK3B pIC50 [3] | CDK1 pIC50 [4] | IC50 [4]
1 | CN1CCNc2ncnc3c2/C(=C/Nc2cccc(c2)OCCCN(C)[C@H](CO)C1=O)C(=O)N3 [Compound 173] | 4.27 µM | > 10 µM | 0.575 µM | – | – | – | – | –
2 | COc1ccc2cc1CN(C)CCCCCC(=O)N(C)CCCN(C)c1ncnc3c1C(=CN2)C(=O)N3 (mixture of isomers) [Compound 89] | – | – | – | <5 | <5 | <5 | <5 | –
3 | COCCN1CCOc2cc(ccc2Cl)N/C=C2\C(=O)Nc3ncnc(c32)NCCCN(C)C(=O)C1 [Compound 205] | – | > 10 µM | 0.0933 µM | – | – | – | – | –
4 | CN1CCN(c2ccc3cc2OCCCCCC(=O)N(C)CCNc2ncnc4c2/C(=C/N3)C(=O)N4)CC1 [Compound 141] | 0.692 µM | > 10 µM | 0.447 µM | – | – | – | – | 7.59 µM
5 | CN1CCCCC(=O)N(C)CCNc2ncnc3c2/C(=C/Nc2ccc(N4CCOCC4)c(c2)C1)C(=O)N3 [Compound 93] | 7.24 µM | > 10 µM | – | – | – | – | – | > 10 µM
6 | CN1CCCNc2ncnc3c2/C(=C/Nc2ccc(Cl)c(c2)OCCCCCCC1=O)C(=O)N3 [Compound 65] | 8.91 µM | > 10 µM | 1.38 µM | – | – | – | – | > 10 µM
7 | CN1CCN(c2ccc3cc2CN(C)CCCCC(=O)N(C)CCNc2ncnc4c2/C(=C/N3)C(=O)N4)CC1 [Compound 92] | 1.29 µM | > 10 µM | 1.48 µM | – | – | – | – | > 10 µM
8 | CN1CCNc2ncnc3c2/C(=C/Nc2ccc(Cl)c(c2)OCCCC1=O)C(=O)N3 [Compound 60] | 1.74 µM | 0.891 µM | 0.263 µM | – | – | – | – | 0.229 µM
9 | CN1CCCCCCC(=O)N(C)CCCNc2ncnc3c2/C(=C/Nc2cccc(c2)C1)C(=O)N3 [Compound 74] | 5.62 µM | > 10 µM | > 10 µM | – | – | – | – | > 10 µM
10 | CN1CCNc2ncnc3c2/C(=C/Nc2ccc(Cl)c(c2)OCCCCC1=O)C(=O)N3 [Compound 56] | 3.47 µM | 0.759 µM | 0.166 µM | – | – | – | – | ~6.76 µM and 6.76 µM
11 | CN1CC(=O)NCC#Cc2cccc3c2/C(=C/Nc2cccc(c2)S1(=O)=O)C(=O)N3 [Compound 4] | 0.102 µM | > 10 µM | – | – | – | – | – | –
12 | CN1CCCCCC(=O)N(C)CCNc2ncnc3c2/C(=C/Nc2cccc(c2)C1)C(=O)N3 [Compound 80] | 1.41 µM | > 10 µM | 4.68 µM | – | – | – | – | > 10 µM
13 | CN1CCCNc2ncnc3c2/C(=C/Nc2cccc(c2)OCCN(C)[C@H](CO)C1=O)C(=O)N3 [Compound 102] | 1.95 µM | 6.46 µM | 0.0776 µM | – | – | – | – | –
14 | O=C1Nc2ncnc3c2C1=CNc1cc(ccc1Cl)OCCCCCC(=O)N1CCN3CC1 (mixture of isomers) [Compound 19] | – | – | – | <5 | <5 | – | – | –
15 | COCCN1CCCOc2cc(ccc2OC)N/C=C2\C(=O)Nc3ncnc(c32)NCCNC(=O)C1 [Compound 202] | – | 3.98 µM | 4.68 µM | – | – | – | – | –
16 | CN1CCC(=O)N(C)CCNc2ncnc3c2/C(=C/Nc2ccc(Cl)c(c2)OCC(O)C1)C(=O)N3 (stereo not drawn) [Compound 104] | – | 3.39 µM | 1.1 µM | – | – | – | – | –
17 | COc1ccc2cc1OCCCCCC(=O)N(C)CCCN(C)c1ncnc3c1/C(=C/N2)C(=O)N3 [Compound 84] | 2.95 µM | > 10 µM | 0.372 µM | – | – | – | – | –
18 | CN1CCNc2ncnc3c2/C(=C/Nc2ccc(Cl)c(c2)OCCN2C[C@H](O)C[C@@H]2C1=O)C(=O)N3 [Compound 194] | 5.13 µM | > 10 µM | 0.457 µM | – | – | – | – | –
